Assay results reported in patent US20200354327A1, “COMPOUND HAVING STAT3 INHIBITORY ACTIVITY AND USE THEREOF” (CYTUS H&B CO., LTD., priority 2017, published 2020).

Columns and labels:
STAT92E = test: Drosophila cell luciferase assay (10XSTAT92E-luciferase reporter); format: cell-based; details: activated by the ligand upd or Hop
Protocol: Drosophila cells (S2-NP, 24×3) used in the experiment were cultured as previously described (Kim B H, et al. Mol Cancer Ther. 7, 2672-2680 (2008)). S2-NP (Drosophila Schneider cell) cells were Drosophila-derived macrophage-like cells and were cultured in Schneider's medium. 24×3 cells were cell lines stably expressed by inserting 10XSTAT92E-luciferase and PolIII-Renilla luciferase-labeled plasmid DNA as reporter constructs into S2-NP cells and were cultured in a medium prepared by adding […] of geneticin to the same medium as that for S2-NP. S2-NP cells in which unpaired (upd) or HOPT^Tum-l as a ligand was expressed and 24×3 cells constructed with reporter constructs were mixed at a constant ratio and cultured for 24 hours in the presence of a compound, the expression level of STAT92E was measured using a luminometer, and the inhibition effect was compared with that of the DMSO-treated group.

SOCS3 = test: Western blot of SOCS3 expression in L540 cells; format: cell-based, human
Protocol: (§1) The human cancer cell lines used in the experiment were U87-MG (human malignant glioblastoma) and MDA-MB-231 (human malignant breast cancer) cell lines, and various kinds of human-derived blood and solid cancer cells including these human cancer cell lines were cultured as previously described (Jung J E, et al. FASEB J. 19, 1296-1298 (2005)). The human Hodgkin lymphoma cancer cell lines L540 and HLDM-2 used in the experiment were obtained from the German Collection of Microorganism and Cell Cultures (DSMZ, Germany) and cultured using RPMI 1640 medium containing 20% FBS in a 5% CO2 incubator at a temperature of 37° C.
(§2) Western blot analysis was performed (Jung J E, et al. FASEB J. 19, 1296-1298 (2005)). The cells were washed two times with PBS and suspended in the lysate (50 mM Tris-HCl, pH 7.4, 350 mM NaCl, 1% Triton X-100, 0.5% Nonidet P-40, 10% glycerol, 0.1% SDS, 1 mM EDTA, 1 mM EGTA, 1 mM Na3VO4, 1 mM PMSF, protease and phosphorylation inhibitor) and the cell membrane and nuclear membrane were crushed to lyse the cells. The insoluble protein fraction was removed by centrifugation, and the supernatant was mixed with SDS electrophoresis buffer and electrophoresis (SDS-PAGE) was performed to detect the protein with the desired antibody and to confirm the protein expression level.

JAK3 = target: T1, JAK3 (Homo sapiens, UniProt P52333); test: Western blot of upper signaling in L540 cells: JAK3; format: cell-based
T1 construct: endogenous in cells; host or cells: L540
T1 sequence (P52333 1-1124): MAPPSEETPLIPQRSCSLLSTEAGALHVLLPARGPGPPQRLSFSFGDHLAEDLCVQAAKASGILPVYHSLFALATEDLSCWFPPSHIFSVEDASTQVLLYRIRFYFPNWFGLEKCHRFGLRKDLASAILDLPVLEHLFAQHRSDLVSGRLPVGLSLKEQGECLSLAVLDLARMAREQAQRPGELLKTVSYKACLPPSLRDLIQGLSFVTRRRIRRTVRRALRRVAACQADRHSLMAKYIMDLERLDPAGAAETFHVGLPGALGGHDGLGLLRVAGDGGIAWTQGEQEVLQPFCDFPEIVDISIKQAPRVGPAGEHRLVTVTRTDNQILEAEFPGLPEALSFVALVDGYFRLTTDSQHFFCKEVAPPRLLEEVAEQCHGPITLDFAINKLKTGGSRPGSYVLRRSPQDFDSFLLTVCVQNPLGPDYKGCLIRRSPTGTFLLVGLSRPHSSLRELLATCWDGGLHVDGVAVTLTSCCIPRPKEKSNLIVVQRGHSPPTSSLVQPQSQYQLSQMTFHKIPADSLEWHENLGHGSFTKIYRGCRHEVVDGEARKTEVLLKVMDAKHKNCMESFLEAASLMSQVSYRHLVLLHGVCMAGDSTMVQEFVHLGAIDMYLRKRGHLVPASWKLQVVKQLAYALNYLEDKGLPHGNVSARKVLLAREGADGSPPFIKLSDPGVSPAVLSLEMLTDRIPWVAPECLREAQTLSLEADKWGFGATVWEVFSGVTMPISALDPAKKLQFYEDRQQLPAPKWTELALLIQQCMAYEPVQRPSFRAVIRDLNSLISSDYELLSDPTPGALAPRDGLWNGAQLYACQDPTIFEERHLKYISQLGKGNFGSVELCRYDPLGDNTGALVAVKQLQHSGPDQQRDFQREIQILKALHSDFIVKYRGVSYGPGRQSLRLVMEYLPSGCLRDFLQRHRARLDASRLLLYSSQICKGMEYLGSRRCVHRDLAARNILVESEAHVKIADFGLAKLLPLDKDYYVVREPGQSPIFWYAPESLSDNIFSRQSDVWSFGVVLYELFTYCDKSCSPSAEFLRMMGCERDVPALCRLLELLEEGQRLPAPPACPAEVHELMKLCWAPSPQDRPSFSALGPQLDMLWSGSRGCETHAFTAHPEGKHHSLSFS
Protocol: as §1, §2

Src family kinase Lyn = target: T2, Src family kinase Lyn (Homo sapiens, UniProt P07948); test: Western blot of signaling in L540 cells: Lyn; format: cell-based
T2 construct: endogenous in cells; host or cells: L540
Protocol: as §1, §2

ERK signaling process = test: Western blot of signaling in L540 cells: ERK; format: cell-based, human
Protocol: as §1, §2

STAT3 [1] = target: T3, STAT3 (Homo sapiens, UniProt P40763); test: Western blot in Hodgkin lymphoma cell line L540; format: cell-based; set-up: endogenous in cells; host or cells: L540, HDLM-2, U87-MG, MDA-MB-231, further human glioblastoma and breast cancer lines; details: L540 cells
Protocol: as §1, §2

STAT3 [2] = target: T3, STAT3; test: Western blot in HDLM-2 cells; format: cell-based; set-up: endogenous in cells; host or cells: L540, HDLM-2, U87-MG, MDA-MB-231, further human glioblastoma and breast cancer lines
Protocol: as §1, §2

STAT3 [3] = target: T3, STAT3; test: Western blot of the 46 Table 1 compounds in Hodgkin lymphoma cell lines L540 and HDLM-2; format: cell-based; set-up: endogenous in cells; host or cells: L540, HDLM-2, U87-MG, MDA-MB-231, further human glioblastoma and breast cancer lines
Protocol: as §1, §2

T3 sequence (P40763 whole entry): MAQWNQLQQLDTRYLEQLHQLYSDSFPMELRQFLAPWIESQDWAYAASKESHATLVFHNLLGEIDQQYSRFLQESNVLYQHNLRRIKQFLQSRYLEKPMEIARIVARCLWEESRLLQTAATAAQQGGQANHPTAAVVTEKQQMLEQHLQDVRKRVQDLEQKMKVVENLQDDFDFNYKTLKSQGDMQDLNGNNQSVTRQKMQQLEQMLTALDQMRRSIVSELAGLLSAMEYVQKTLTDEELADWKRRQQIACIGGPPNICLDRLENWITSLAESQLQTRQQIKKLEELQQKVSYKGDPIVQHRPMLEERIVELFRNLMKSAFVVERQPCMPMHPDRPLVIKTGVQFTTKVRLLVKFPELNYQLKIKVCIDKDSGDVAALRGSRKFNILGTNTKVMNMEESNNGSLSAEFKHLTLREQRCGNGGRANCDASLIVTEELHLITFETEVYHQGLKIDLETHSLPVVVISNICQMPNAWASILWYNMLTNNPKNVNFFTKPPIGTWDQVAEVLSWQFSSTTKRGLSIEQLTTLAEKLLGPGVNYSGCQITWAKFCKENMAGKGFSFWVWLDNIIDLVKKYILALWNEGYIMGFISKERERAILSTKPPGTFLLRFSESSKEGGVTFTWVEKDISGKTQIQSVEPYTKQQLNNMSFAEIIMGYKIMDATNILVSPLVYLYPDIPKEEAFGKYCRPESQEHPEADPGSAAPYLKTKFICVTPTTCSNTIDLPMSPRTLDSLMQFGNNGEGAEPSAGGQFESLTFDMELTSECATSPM
T2 sequence (P07948 whole entry): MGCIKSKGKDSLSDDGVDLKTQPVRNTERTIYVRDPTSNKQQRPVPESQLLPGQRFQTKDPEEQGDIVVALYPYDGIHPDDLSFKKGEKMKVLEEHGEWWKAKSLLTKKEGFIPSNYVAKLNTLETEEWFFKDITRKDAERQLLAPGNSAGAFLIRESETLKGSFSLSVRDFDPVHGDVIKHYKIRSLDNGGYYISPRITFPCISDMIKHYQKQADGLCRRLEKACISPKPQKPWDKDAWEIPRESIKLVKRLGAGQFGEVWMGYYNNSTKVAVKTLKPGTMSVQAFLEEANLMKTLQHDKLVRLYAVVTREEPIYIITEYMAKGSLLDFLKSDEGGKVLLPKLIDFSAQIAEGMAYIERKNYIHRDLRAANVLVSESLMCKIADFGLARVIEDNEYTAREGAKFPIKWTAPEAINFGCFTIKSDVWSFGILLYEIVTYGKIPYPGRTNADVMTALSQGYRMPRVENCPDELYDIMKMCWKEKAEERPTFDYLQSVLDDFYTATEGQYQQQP

CC(C)(C)c1nc(COc2cccc([N+](=O)[O-])c2)no1 [ODZ17690, 5-tert-butyl-3-(3-nitro-phenoxymethyl)-[1,2,4]oxadiazole]
expression of STAT92E (luciferase assay) (STAT92E): effectively inhibited the expression of STAT92E | expression of SOCS3 (SOCS3): effectively inhibited | inhibitory action on JAK3 (JAK3): weak inhibitory action | inhibitory action on Src family kinase Lyn (Src family kinase Lyn): did not exert an inhibitory action | inhibitory action on ERK signaling process (ERK signaling process): did not exert an inhibitory action | phosphorylation of tyrosine residue 705 of STAT3 (STAT3 [1]): effectively inhibited the phosphorylation of tyrosine residue 705 of STAT3 | selective inhibitory action on STAT3 versus STAT1 or STAT5 (STAT3 [1]): stronger selective inhibitory action on STAT3 than on STAT1 or STAT5 | phosphorylation of tyrosine residue 705 of STAT3 (STAT3 [2]): selectively inhibited phosphorylation of tyrosine residue 705 of STAT3

Cc1ccc(S(=O)(=O)Nc2cccc(C(=O)Nc3cccnc3)c2)cc1 [compound 46, 3-{[(4-methylphenyl)sulfonyl]amino}-N-3-pyridinylbenzamide]
STAT3 inhibitory efficacy, first screening (STAT3 [3]; L540 and HDLM-2): judged to exert superior STAT3 inhibitory efficacy | STAT3 inhibitory efficacy, secondary screening (STAT3 [3]; L540 and HDLM-2, 50 μM): judged to exert superior STAT3 inhibitory efficacy | phosphorylation of STAT tyrosine 705 (STAT3 [3]; L540 and HDLM-2, various concentrations): significantly inhibited the phosphorylation of STATdml tyrosine 705 in a concentration-dependent manner
